{
  "source": "patent US20100136097A1",
  "about": "“Systems for modulating inflammation” (Searete LLC, a limited liability corporation of the State …, priority 2008, published 2010)",
  "origin": "cited, not measured here",
  "key": {"[1]": {"conditions": "single agent, infused at 400 mg over one hour"}, "[2]": {"tested_on": "proteasomal activity in cultured breast cancer cells", "conditions": "through binding of copper"}, "[3]": {"conditions": "mice"}, "[4]": {"tested_on": "Src family kinases (Src, Lck, Yes, Fyn)", "conditions": "at nanomolar concentrations"}},
  "data": [
    {"smiles": "CCN(CC)CCCC(C)Nc1ccnc2cc(Cl)ccc12.O=P(O)(O)O.O=P(O)(O)O", "note": "(centres unmarked) [Chloroquine phosphate, 7-chloro-4-[[4-(diethylamino)-1-methylbutyl]amino]quinoline phosphate (1:2)]", "values": [
      {"measurement": "tolerability of infusion", "setting": "[1]", "result": "without complication"}
    ]},
    {"smiles": "CCN(CC)CCCC(C)Nc1ccnc2cc(Cl)ccc12", "note": "(centres unmarked) [Chloroquine]", "values": [
      {"measurement": "inhibition of CpG-induced Src family kinase activation, or its dependent cellular responses", "setting": "Src family kinase", "result": "does not inhibit"}
    ]},
    {"smiles": "CCN(CC)C(=S)SSC(=S)N(CC)CC", "note": "[Disulfiram, 1-(diethylthiocarbamoyldisulfanyl)-N,N-diethyl-methanethioamide]", "values": [
      {"measurement": "proteasomal activity", "setting": "[2]", "result": "inhibits proteasomal activity"}
    ]},
    {"smiles": "Cl.Cl.Nc1ccccc1Oc1ccc2c(N)nsc2c1", "note": "[Example M62812, 3-amino-6-(2-aminophenoxy)-1,2-benzisothiazole dihydrochloride]", "values": [
      {"measurement": "prevention of lethal septic shock", "setting": "[3]", "result": "prevents lethal septic shock"}
    ]},
    {"smiles": "Cc1nc(Nc2ncc(C(=O)Nc3c(C)cccc3Cl)s2)cc(N2CCN(CCO)CC2)n1.O", "note": "[dasatinib, N-(2-chloro-6-methylphenyl)-2-[[6-[4-(2-hydroxyethyl)-1-piperazinyl]-2-methyl-4-pyrimidinyl]amino]-5-thiazolecarboxamide, monohydrate]", "values": [
      {"measurement": "inhibition of Src family kinases (Src, Lck, Yes, Fyn)", "setting": "[4]", "result": "inhibits"}
    ]}
  ]
}
